Measured values as given in PMC6718736, “Validation of in vitro methods for human cytochrome P450 enzyme induction: Outcome of a multi-laboratory study” (Toxicology in Vitro, 2019).
Read-outs that look alike come from different tables or passages of the source.

Legend:
CYP1A2 [1] = assay: CYP1A2 enzyme induction assay in cryopreserved HepaRG cells (phenacetin probe, LC/MS); assay type: in vitro ADME, human; details: for Prediction in vivo inducer: Cmax/F2 >0.5 criterion; for Assigned classification CYP1A2: HepaRG; on Assigned classification CYP1A2: key: 1=Positive=inducer; 0=Negative=non-inducer
CYP2B6 [2] = assay: CYP2B6 enzyme induction assay in cryopreserved HepaRG cells (bupropion probe, LC/MS); assay type: in vitro ADME, human; details: for Prediction in vivo inducer: Cmax/F2 >0.5 criterion; for Assigned classification CYP2B6: HepaRG; on Assigned classification CYP2B6: key: 1=Positive=inducer; 0=Negative=non-inducer
CYP3A4 [3] = assay: CYP3A4 enzyme induction assay in cryopreserved HepaRG cells (midazolam probe, LC/MS); assay type: in vitro ADME, human; details: for Assigned classification CYP3A4: HepaRG; on Assigned classification CYP3A4: key: 1=Positive=inducer; 0=Negative=non-inducer
CYP1A2 [4] = assay: CYP1A2 enzyme induction assay in cryopreserved primary human hepatocytes (PHH); assay type: in vitro ADME; details: for Prediction in vivo inducer: Cmax/F2 >0.5 criterion; for Assigned classification CYP1A2: PHH;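 on Assigned classification CYP1A2: code 1 means positive inducer and 0 means non-inducer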
CYP2B6 [5] = assay: CYP2B6 enzyme induction assay in cryopreserved primary human hepatocytes (PHH); assay type: in vitro ADME; details: for Assigned classification CYP2B6: PHH;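 on Assigned classification CYP2B6: code 1 means positive inducer and 0 means non-inducer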
[6] = cited from earlier work
CYP = CYP isoforms induced; ref Abadie et al. (2009), Richert et al. (2010), Preissner et al. (2010), Hoffmann et al. (2014); cited from earlier work
CYP3A4 [7] = details: cited from earlier work
CYP3A4 [8] = assay: CYP3A4 enzyme induction assay in cryopreserved primary human hepatocytes (PHH); details: for Assigned classification CYP3A4: PHH

Prediction in vivo inducer (CYP1A2 [1]; CYP1A2, HepaRG cells, listed as Bosentan): Yes | Prediction in vivo inducer (CYP1A2 [1]; CYP1A2, HepaRG cells, listed as bosentan): CYP1A2 induction would be expected | F2 (CYP1A2 [1]; CYP1A2, HepaRG cells, in vitro concentration producing 2-fold induction): 2.60 to 7.80 µM | Induction in vitro (CYP1A2 [1]; CYP1A2, HepaRG cells, positive in one batch in each of the three laboratories): Yes | Assigned classification CYP1A2 (CYP1A2 [1]; Lab 1, batch 20): 1 | Assigned classification CYP1A2 (CYP1A2 [1]; Lab 1, batch 35): 1 | Assigned classification CYP1A2 (CYP1A2 [1]; Lab 1, batch 36): 1 | Assigned classification CYP1A2 (CYP1A2 [1]; Lab 2, batch 20): 1 | Assigned classification CYP1A2 (CYP1A2 [1]; Lab 2, batch 35): 1 | Assigned classification CYP1A2 (CYP1A2 [1]; Lab 2, batch 36): 1 | Assigned classification CYP1A2 (CYP1A2 [1]; Lab 3, batch 20): 1 | Assigned classification CYP1A2 (CYP1A2 [1]; Lab 3, batch 35): 1 | Assigned classification CYP1A2 (CYP1A2 [1]; Lab 3, batch 36): 0 | Prediction in vivo inducer (CYP2B6 [2]; CYP2B6, HepaRG cells, listed as Bosentan): Yes | Prediction in vivo inducer (CYP2B6 [2]; CYP2B6, HepaRG cells, listed as bosentan): predicted as positive inducers | F2 (CYP2B6 [2]; CYP2B6, HepaRG cells, in vitro concentration producing 2-fold induction): 2.60 to 7.80 µM | Induction in vitro (CYP2B6 [2]; CYP2B6, HepaRG cells, positive in one batch in each of the three laboratories): Yes | Assigned classification CYP2B6 (CYP2B6 [2]; Lab 1, batch 20): 1 | Assigned classification CYP2B6 (CYP2B6 [2]; Lab 1, batch 35): 1 | Assigned classification CYP2B6 (CYP2B6 [2]; Lab 1, batch 36): 0 | Assigned classification CYP2B6 (CYP2B6 [2]; Lab 2, batch 20): 1 | Assigned classification CYP2B6 (CYP2B6 [2]; Lab 2, batch 35): 0 | Assigned classification CYP2B6 (CYP2B6 [2]; Lab 2, batch 36): 0 | Assigned classification CYP2B6 (CYP2B6 [2]; Lab 3, batch 20): 0 | Assigned classification CYP2B6 (CYP2B6 [2]; Lab 3, batch 35): 1 | Assigned classification CYP2B6 (CYP2B6 [2]; Lab 3, batch 36): 0 | F2 (CYP3A4 [3]; CYP3A4, HepaRG cells): 0.29 µM | Induction in vitro (CYP3A4 [3]; CYP3A4, HepaRG cells): Yes | Prediction in vivo inducer (CYP3A4 [3]; CYP3A4, HepaRG cells): Yes | Assigned classification CYP3A4 (CYP3A4 [3]; Lab 1, batch 20): 1 | Assigned classification CYP3A4 (CYP3A4 [3]; Lab 1, batch 35): 1 | Assigned classification CYP3A4 (CYP3A4 [3]; Lab 1, batch 36): 1 | Assigned classification CYP3A4 (CYP3A4 [3]; Lab 2, batch 20): 1 | Assigned classification CYP3A4 (CYP3A4 [3]; Lab 2, batch 35): 1 | Assigned classification CYP3A4 (CYP3A4 [3]; Lab 2, batch 36): 1 | Assigned classification CYP3A4 (CYP3A4 [3]; Lab 3, batch 20): 1 | Assigned classification CYP3A4 (CYP3A4 [3]; Lab 3, batch 35): 1 | Assigned classification CYP3A4 (CYP3A4 [3]; Lab 3, batch 36): 1 | Prediction in vivo inducer (CYP1A2 [4]; CYP1A2, PHH, listed as Bosentan): No | Prediction in vivo inducer (CYP1A2 [4]; CYP1A2, PHH, listed as bosentan): non-inducers | Induction in vitro (CYP1A2 [4]; CYP1A2, PHH, positive in one donor in each of the three laboratories): No | Assigned classification CYP1A2 (CYP1A2 [4]; Lab 1, batch 0 6 A): 0 | Assigned classification CYP1A2 (CYP1A2 [4]; Lab 1, batch 4 0 8): 0 | Assigned classification CYP1A2 (CYP1A2 [4]; Lab 1, batch 8 0 8): 0 | Assigned classification CYP1A2 (CYP1A2 [4]; Lab 2, batch 0 6 A): 0 | Assigned classification CYP1A2 (CYP1A2 [4]; Lab 2, batch 4 0 8): 0 | Assigned classification CYP1A2 (CYP1A2 [4]; Lab 2, batch 8 0 8): 1 | Assigned classification CYP1A2 (CYP1A2 [4]; Lab 3, batch 0 6 A): 1 | Assigned classification CYP1A2 (CYP1A2 [4]; Lab 3, batch 4 0 8): 0 | Assigned classification CYP1A2 (CYP1A2 [4]; Lab 3, batch 8 0 8): 0 | F2 (CYP2B6 [5]; CYP2B6, PHH): 5.85 µM | Induction in vitro (CYP2B6 [5]; CYP2B6, PHH): Yes | Prediction in vivo inducer (CYP2B6 [5]; CYP2B6, PHH): Yes | Assigned classification CYP2B6 (CYP2B6 [5]; Lab 1, batch 0 6 A): 1 | Assigned classification CYP2B6 (CYP2B6 [5]; Lab 1, batch 4 0 8): 1 | Assigned classification CYP2B6 (CYP2B6 [5]; Lab 1, batch 8 0 8): 1 | Assigned classification CYP2B6 (CYP2B6 [5]; Lab 2, batch 0 6 A): 1 | Assigned classification CYP2B6 (CYP2B6 [5]; Lab 2, batch 4 0 8): 0 | Assigned classification CYP2B6 (CYP2B6 [5]; Lab 2, batch 8 0 8): 1 | Assigned classification CYP2B6 (CYP2B6 [5]; Lab 3, batch 0 6 A): 1 | Assigned classification CYP2B6 (CYP2B6 [5]; Lab 3, batch 4 0 8): 1 | Assigned classification CYP2B6 (CYP2B6 [5]; Lab 3, batch 8 0 8): 1 | F2 (CYP3A4 [8]; CYP3A4, PHH): 0.65 to 1.95 µM | Induction in vitro (CYP3A4 [8]; CYP3A4, PHH): Yes | Prediction in vivo inducer (CYP3A4 [8]; CYP3A4, PHH): Yes | Assigned classification CYP3A4 (CYP3A4 [8]; Lab 1, batch 0 6 A): 1 | Assigned classification CYP3A4 (CYP3A4 [8]; Lab 1, batch 4 0 8): 1 | Assigned classification CYP3A4 (CYP3A4 [8]; Lab 1, batch 8 0 8): 1 | Assigned classification CYP3A4 (CYP3A4 [8]; Lab 2, batch 0 6 A): 1 | Assigned classification CYP3A4 (CYP3A4 [8]; Lab 2, batch 4 0 8): 1 | Assigned classification CYP3A4 (CYP3A4 [8]; Lab 2, batch 8 0 8): 1 | Assigned classification CYP3A4 (CYP3A4 [8]; Lab 3, batch 0 6 A): 1 | Assigned classification CYP3A4 (CYP3A4 [8]; Lab 3, batch 4 0 8): 1 | Assigned classification CYP3A4 (CYP3A4 [8]; Lab 3, batch 8 0 8): 1
SMILES: COc1ccccc1Oc1c(NS(=O)(=O)c2ccc(C(C)(C)C)cc2)nc(-c2ncccn2)nc1OCCO [Bosentan hydrate]
Cmax ([6]; human in vivo plasma concentration, normal dose): 5.8 µM | Cmax ([6]; human in vivo, normal dose (Table 10)): 5.8 µM | CYP induction in vitro (human hepatocytes) (CYP): CYP3A4 | Induction in vivo (CYP3A4 [7]; CYP3A4, human in vivo reference classification (Table 11)): Yes | CYP induction in vivo literature reference: CYP3A4 (CYP3A4 [7]; human in vivo, CYP named without remark = induced, ref references in the cell, Washington University database, Hoffmann et al. (2014), Pelkonen et al. (2008), Hukkanen et al. (2012)): CYP1A2 NO studies CYP2B6 NO studies CYP 3A4 ([Weber et al., 1999a], [Weber et al., 1999b]; [van Giersbergen et al., 2002a], [van Giersbergen et al., 2002b]; Dingemanse and van Giersbergen, 2004)
